The values that follow come from patent US11839613B2, “Pyrimidine derivatives as PGE2 receptor modulators” (IDORSIA PHARMACEUTICALS LTD, priority 2017, dated 2023).

For test [1], the target named is EP2 (Homo sapiens (Human), UniProt P43116). Description: hEP2 cAMP assay (SF295 glioblastoma cells, HTRF cAMP). Conditions: antagonistic activity. In kind it is cell-based. The source says: (§1) Human tumor cell lines expressing endogenously either EP4 or EP2 are used and cAMP accumulation in cells upon PGE2 stimulation is monitored. SF295 glioblastoma cells express high endogenous EP2 and no EP4, whereas BT549 breast cancer cells, express high endogenous EP4 levels and very low EP2 levels.
(§2) As a detection method for cAMP the HTRF (homogeneous time resolved fluorescence) Cisbio kit (HTRF cAMP dynamic 2 kit 20'000 tests Cisbio Cat. #62AM4PEC) was used, which is based on a competitive immunoassay using a Cryptate-labeled anti-cAMP antibody and d2-labeled cAMP. Native cAMP produced by cells or unlabeled cAMP (for the standard curve) compete with exogenously added d2-labeled cAMP (acceptor) for binding to monoclonal anti-cAMP-Eu3+Cryptate (donor). A FRET signal (Fluorescence Resonance Energy Transfer) is obtained only if the labeled anti-cAMP antibody binds the d2 labelled cAMP, thus the specific signal (i.e. energy transfer) is inversely proportional to the concentration of cAMP in the standard or sample.
(§3) Cells are counted washed and resuspended in assay buffer (AB; HBSS, 20 mM HEPES, 0.2% BSA; 2 mM IBMX).
Plate is pre-incubated 45 minutes at RT. […] Plate is incubated 30 minutes at RT.
Background: cAMP levels reflect the balance of adenylyl cyclase and phosphodiesterase activity.

Test [2] deals with EP4 (Homo sapiens (Human), UniProt P35408). Description: hEP4 cAMP assay (BT549 breast cancer cells, HTRF cAMP). It is filed as cell-based. To be noted: antagonistic activity, PGE2 6 nM.
From the text: as §1, §2, §3
Plate is pre-incubated 45 minutes at RT. Subsequently, 2.5 microliters of PGE2 (final conc. 6 nM) are transferred into the assay plate. Plate is incubated 30 minutes at RT.

The target of test [3] is PTGER4 (EP4) (Homo sapiens (Human), UniProt P35408). Description: cell-based.
The target of test [4] is PTGER2 (EP2) (Homo sapiens (Human), UniProt P43116). Description: hEP2 b-arrestin assay (PathHunter HEK 293 PTGER2 b-arrestin cells). In kind it is cell-based. To be noted: antagonistic activity, beta-arrestin assay; read-out: hEP2 b-arr IC50. How it is done:
Plate is pre-incubated 15 minutes at 37° C. Then five microliters of PGE2 (final conc. 5 μM) are transferred into the assay plate. Plate is incubated 120 minutes at 37° C.
(each concentration is measured in duplicate)

Sequence of EP2 (P43116 whole entry): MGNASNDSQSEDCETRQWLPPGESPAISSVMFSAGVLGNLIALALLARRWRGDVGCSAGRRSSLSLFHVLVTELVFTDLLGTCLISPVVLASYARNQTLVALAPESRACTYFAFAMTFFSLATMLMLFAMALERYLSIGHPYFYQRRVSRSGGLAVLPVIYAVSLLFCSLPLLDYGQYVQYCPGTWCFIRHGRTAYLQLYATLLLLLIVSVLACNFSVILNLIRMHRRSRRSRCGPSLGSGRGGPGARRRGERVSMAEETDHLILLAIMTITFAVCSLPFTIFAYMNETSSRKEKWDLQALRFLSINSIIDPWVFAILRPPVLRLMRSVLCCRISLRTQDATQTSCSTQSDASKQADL
Sequence of PTGER2 (EP2) (P43116 whole entry): as above
Sequence of EP4 (P35408 whole entry): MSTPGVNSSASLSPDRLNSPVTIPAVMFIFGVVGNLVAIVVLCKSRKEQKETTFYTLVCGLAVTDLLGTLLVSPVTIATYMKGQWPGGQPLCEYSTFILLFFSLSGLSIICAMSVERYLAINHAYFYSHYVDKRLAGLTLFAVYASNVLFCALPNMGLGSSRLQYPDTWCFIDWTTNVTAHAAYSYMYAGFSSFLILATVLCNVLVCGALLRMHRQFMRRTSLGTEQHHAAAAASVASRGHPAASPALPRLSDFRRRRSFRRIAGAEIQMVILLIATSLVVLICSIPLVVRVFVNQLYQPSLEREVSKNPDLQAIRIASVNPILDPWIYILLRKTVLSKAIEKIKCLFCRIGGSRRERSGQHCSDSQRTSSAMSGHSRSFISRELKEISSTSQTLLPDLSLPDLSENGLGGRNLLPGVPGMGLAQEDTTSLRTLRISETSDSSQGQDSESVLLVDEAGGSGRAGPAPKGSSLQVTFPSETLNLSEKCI
Sequence of PTGER4 (EP4) (P35408 whole entry): as above

`CCOc1cc(-c2cc(NCCc3cc4ccccc4cc3Cl)ncn2)ccc1OCC(=O)O` [Ex 247]: the IC50 (in general, the midpoint of a concentration-inhibition curve) in test [1] worked out at 797 nM; in test [2], 365 nM.

Consider `CCOc1cc(-c2cc(NCCc3ccc4cc[nH]c4c3)ncn2)ccc1C(=O)O` [Ex 259, 2-Ethoxy-4-{6-[2-(1H-indol-6-yl)-ethylamino]-pyrimidin-4-yl}-benzoic acid], for which the half-inhibitory concentration (IC50) in test [1] came out at 302 nM; in test [2], 394 nM.

In the case of `CC(C)Oc1cc2ccccc2cc1CCNc1cc(-c2ccc(C(=O)O)c(OC3CCC3)c2)ncn1` [Ex 264], the IC50 in test [1] came out at 11800 nM; in test [2], 425 nM.

Take `CCOc1cc(-c2cc(NCCc3cc4c(cnn4C)cc3OC)ncn2)ccc1OCC(=O)O` [Ex 298]: the IC50 stood at 716 nM in test [1] and 613 nM in test [2].

Take `Cc1c(CCNc2cc(-c3ccc(C(=O)O)c(OCCO)c3)ncn2)ccc2ccccc12` [Ex 234]: the IC50 is 113 nM in test [1] and 325 nM in test [2].

As for `CCOc1cc(-c2cc(NCCc3ccc4c(c3)OCCC4)ncn2)ccc1C(=O)O` [Ex 309, 4-[6-(2-Chroman-7-yl-ethylamino)-pyrimidin-4-yl]-2-ethoxy-benzoic acid], the IC50 in test [1] was more than 27700 nM; in test [2] it was 677 nM.

For the molecule `O=C(O)c1ccc(-c2cc(NCCc3ccc4c(c3)OCCO4)ncn2)cc1OC1CCC1` [Ex 244], the IC50 is 552 nM in test [1] and 356 nM in test [2].

With `CCSc1cc(-c2cc(NCCc3ccc4sccc4c3)ncn2)ccc1C(=O)O` [Ex 222], the IC50 in test [1] was 279 nM; in test [2], 287 nM.

`CCOc1cc(-c2cc(NCCc3ccc4cc[nH]c4c3)ncn2)ccc1CC(=O)O` [Ex 271]: the results for the IC50 in test [1] and in test [2] were 638 nM and 439 nM, respectively.

As to `O=C(O)c1coc2cc(-c3cc(NCCc4ccc5sccc5c4)ncn3)ccc12` [Example 467, 6-[6-(2-Benzo[b]thiophen-5-yl-ethylamino)-pyrimidin-4-yl]-benzofuran-3-carboxylic acid], the values for the IC50 in test [3], in test [4] and in test [2] (BT549 cells) were 187 nM, 417 nM and 155 nM, respectively.

For the molecule `CCOc1cc(-c2cc(NCCc3c(F)cc4ncccc4c3F)ncn2)ccc1C(=O)O` [Ex 304], the IC50 in test [1] came to 408 nM; in test [2] it was 652 nM.

In the case of `CCOc1cc(-c2cc(NCCc3cc4c(cc3OC)N(C)C(=O)CC4)ncn2)sc1C(=O)O` [Ex 210], the IC50 was found to be 794 nM in test [1] and 252 nM in test [2].

Take `CCOc1cc(-c2cc(NCCc3ccc4sccc4c3F)ncn2)ccc1C(=O)O` [Example 365, 2-Ethoxy-4-{6-[2-(4-fluoro-benzo[b]thiophen-5-yl)-ethylamino]-pyrimidin-4-yl}-benzoic acid]: the IC50 in test [3] came to 149 nM; in test [4] it was 77 nM.

As to `CCCc1cc(-c2cc(NCCc3cc(F)c4sccc4c3)ncn2)ccc1C(=O)NC` [Example 458, 4-{6-[2-(7-Fluoro-benzo[b]thiophen-5-yl)-ethylamino]-pyrimidin-4-yl}-N-methyl-2-propyl-benzamide], the figures for the IC50 in test [3] and in test [4] were 104 nM and 550 nM, respectively.

`CC(C)Cc1cc(-c2cc(NCCc3cc(F)c4sccc4c3)ncn2)ccc1C(=O)O` [Example 414, 4-{6-[2-(7-Fluoro-benzo[b]thiophen-5-yl)-ethylamino]-pyrimidin-4-yl}-2-isobutyl-benzoic acid]: the IC50 in test [3] was 48 nM; in test [4], 219 nM.

Take `O=C(O)c1ccc(-c2cc(NCCc3cc(F)c4sccc4c3)ncn2)cc1OC1CC1` [Example 449, 2-Cyclopropoxy-4-{6-[2-(7-fluoro-benzo[b]thiophen-5-yl)-ethylamino]-pyrimidin-4-yl}-benzoic acid]: the IC50 came out at 46 nM in test [3] and 83 nM in test [4].

Take `COc1cc2c(c(C)c1CCNc1cc(-c3ccc(CC(=O)O)c(OC(F)F)c3)ncn1)OCCO2` [Example 441, (2-Difluoromethoxy-4-{6-[2-(7-methoxy-5-methyl-2,3-dihydro-benzo[1,4]dioxin-6-yl)-ethylamino]-pyrimidin-4-yl}-phenyl)-acetic acid]: the IC50 came out at 53 nM in test [3] and 10 nM in test [4].

With `CCOc1cc(-c2cc(NCCc3ccc4sccc4c3)ncn2)cc(F)c1CC(=O)O` [Example 370, {4-[6-(2-Benzo[b]thiophen-5-yl-ethylamino)-pyrimidin-4-yl]-2-ethoxy-6-fluoro-phenyl}-acetic acid], the IC50 in test [3] was found to be 105 nM; in test [4], 438 nM.

As to `CCOc1cc2c(cc1CCNc1cc(-c3ccc(C(=O)O)c(OC4CC4)c3)ncn1)OCCO2` [Example 447, 2-Cyclopropoxy-4-{6-[2-(7-ethoxy-2,3-dihydro-benzo[1,4]dioxin-6-yl)-ethylamino]-pyrimidin-4-yl}-benzoic acid], the values for the IC50 in test [3] and in test [4] were 130 nM and 2 nM, respectively.

For the molecule `COc1c(CCNc2cc(-c3ccc(CC(=O)O)c(CC(C)C)c3)ncn2)cc2ccsc2c1F` [Example 410, (4-{6-[2-(7-Fluoro-6-methoxy-benzo[b]thiophen-5-yl)-ethylamino]-pyrimidin-4-yl}-2-isobutyl-phenyl)-acetic acid], the IC50 was determined as 113 nM in test [3] and 153 nM in test [4].

In the case of `O=C(O)c1ccc(-c2cc(NCCc3ccc4scc(Cl)c4c3)ncn2)cc1OC1CCC1` [Example 430, 4-{6-[2-(3-Chloro-benzo[b]thiophen-5-yl)-ethylamino]-pyrimidin-4-yl}-2-cyclobutoxy-benzoic acid], the IC50 in test [3] worked out at 66 nM; in test [4] it was 69 nM.

For `CCOc1cc(-c2cc(NCCc3ccc4sccc4c3F)ncn2)ccc1CC(=O)O` [Example 368, (2-Ethoxy-4-{6-[2-(4-fluoro-benzo[b]thiophen-5-yl)-ethylamino]-pyrimidin-4-yl}-phenyl)-acetic acid], the results for the IC50 in test [3] and in test [4] were 66 nM and 221 nM, respectively.

`CCOc1cc(-c2cc(NCCc3ccc4sccc4c3F)ncn2)ccc1OCCC(=O)O` [Example 421, 3-(2-Ethoxy-4-{6-[2-(4-fluoro-benzo[b]thiophen-5-yl)-ethylamino]-pyrimidin-4-yl}-phenoxy)-propionic acid]: the IC50 worked out at 22 nM in test [3] and 84 nM in test [4].

As for `CCOc1cc(-c2cc(NCCc3ccc4c(c3C)OCCO4)ncn2)ccc1CC(=O)O` [Example 506, (2-Ethoxy-4-{6-[2-(5-methyl-2,3-dihydro-benzo[1,4]dioxin-6-yl)-ethylamino]-pyrimidin-4-yl}-phenyl)-acetic acid], the values for the IC50 in test [3] and in test [4] were 332 nM and 172 nM, respectively.

For `CCCc1cc(-c2cc(NCCc3cc4ccsc4c(F)c3OC)ncn2)ccc1C(=O)O` [Example 483, 4-{6-[2-(7-Fluoro-6-methoxy-benzo[b]thiophen-5-yl)-ethylamino]-pyrimidin-4-yl}-2-propyl-benzoic acid], the figures for the half-maximal inhibitory concentration (IC50) in test [3] and in test [4] were 115 nM and 26 nM, respectively.

`CCOc1cc(-c2cc(NCCc3ccc4sccc4c3F)ncn2)cc(F)c1CC(=O)O` [Example 375, (2-Ethoxy-6-fluoro-4-{6-[2-(4-fluoro-benzo[b]thiophen-5-yl)-ethylamino]-pyrimidin-4-yl}-phenyl)-acetic acid]: the IC50 in test [3] was 46 nM; in test [4], 229 nM.

For the molecule `Fc1cc(CCNc2cc(-c3ccc4[nH]ccc4c3)ncn2)cc2ccsc12` [Example 539, [2-(7-Fluoro-benzo[b]thiophen-5-yl)-ethyl]-[6-(1H-indol-5-yl)-pyrimidin-4-yl]amine], the values for the IC50 in test [3] and in test [4] were 225 nM and 452 nM, respectively.

Regarding `CCOc1cc(-c2cc(NCCc3cc4ccsc4c(F)c3OC)ncn2)sc1C(=O)O` [Example 484, 3-Ethoxy-5-{6-[2-(7-fluoro-6-methoxy-benzo[b]thiophen-5-yl)-ethylamino]-pyrimidin-4-yl}-thiophene-2-carboxylic acid], the IC50 in test [3] and in test [4] was 3 nM in each case.

`CCCOc1cc(-c2cc(NCCc3cc4ccsc4cc3OC)ncn2)ccc1CC(=O)O` [Example 392, (4-{6-[2-(6-Methoxy-benzo[b]thiophen-5-yl)-ethylamino]-pyrimidin-4-yl}-2-propoxy-phenyl)-acetic acid]: the IC50 in test [3] was determined as 292 nM; in test [4] it was 66 nM.

Take `CCOc1cc(-c2cc(NCCc3cc(C)c4sccc4c3)ncn2)ccc1C(=O)O` [Example 476, 2-Ethoxy-4-{6-[2-(7-methyl-benzo[b]thiophen-5-yl)-ethylamino]-pyrimidin-4-yl}-benzoic acid]: the figures for the IC50 in test [3] and in test [4] were 264 nM and 428 nM, respectively.

In the case of `CC(C)Oc1cc(-c2cc(NCCc3ccc4sccc4c3F)ncn2)ccc1C(=O)O` [Example 492, 4-{6-[2-(4-Fluoro-benzo[b]thiophen-5-yl)-ethylamino]-pyrimidin-4-yl}-2-isopropoxy-benzoic acid], the IC50 in test [3] amounted to 142 nM; in test [4] it was 204 nM.
